Source: patent US4950651A, “Nitroso-N-(β-chloro ethyl)-carbamoyl peptides” (priority 1981, dated 1990)
Counter-ions that a name gives are not always drawn. Like-named read-outs stand apart in the source and are kept apart here. Where a SMILES comes first, the peptide text is derived from it. The star is where a group is joined. Carbamoyl(2-ClEt,NO) = O=NN(CCCl)C(=O)*

What was measured:
[1] = system: L-1210 leukemia; assay: Effect on intraperitoneally implanted L-1210 leukemia in mice (Table I); type: in vivo; conditions: treatment 3 days
Text: In table I the effect of Compound X [drawing 8] and VII on intraperitoneally implanted L-1210 leukemia is shown on mice.
Tumor inoculum = 10^6, ascites cells, i.p.
Host animal = CDF, female mice
Toxicity = on the 5th day < 4/6 mice are alive.
Evaluation = MST = average survival period
Critical limit = T/C ≥ 125, significant antitumor activity.

[2] = system: Lewis lung tumor; assay: Effect on solid tumors: Lewis lung metastatizing mice tumor (i.m.); type: in vivo
Text: (§1) (B) Lewis lung and B16 melanoma - meta-
(§2) statizing mice tumor (i.m.)
(§3) i.p. administration from the 1st day after […]

[3] = system: B16 melanoma; assay: Effect on solid tumors: B16 melanoma metastatizing mice tumor (i.m.); type: in vivo
Text: as §1, §2, §3

[4] = system: L1210 leukemia; type: in vivo, mice
Text: Effect of compound of formula X in combination
with pharmaceuticals in mice suffering from L1210

[5] = system: L1210 leukemia; assay: Relation between effect and chemical structure in mice suffering from L1210 leukemia (Table III); type: in vivo
Text: Examination of the relation between the
effect and the chemical structure with compounds
similar to compound of formula X in mice suffering

## O=NN(CCCl)C(=O)NCCCl [BCNU, 1,3-bis-(β-chloro-ethyl)-1-nitroso-urea]
[1]; dose IP 30 mg/kg
  Average loss of weight on the 5th day: -0.8 g
  MST (average survival period): > 47.0 days
  MST efficiency %, T/C: > 783%
  Number of live mice on the 5th day: 6/6
  Number of live mice on the [47th] day: 5
[1]; dose IP 40 mg/kg
  Average loss of weight on the 5th day: -1.4 g
  MST (average survival period): > 47.0 days
  MST efficiency %, T/C: > 783%
  Number of live mice on the 5th day: 6/6
  Number of live mice on the [47th] day: 5
[2]; 20 mg/kg i.p.
  ILS %: 36%
  Median surviving day: 28.5 days
[2]; 5 × 4 mg/kg i.p.
  ILS %: 19%
  Median surviving day: 25.0 days
[3]; 20 mg/kg i.p.
  ILS %: 61%
  Median surviving day: 42.0 days
[3]; 5 × 4 mg/kg i.p.
  ILS %: 31%
  Median surviving day: 34.0 days
[4]; 5 mg/kg, day 1
  ILS %: 25%
[4]; 20 mg/kg, day 1
  ILS %: 110%
[4]; 1 × 10 mg/kg, day 2
  ILS %: 77%
[4]; 1 × 20 mg/kg, day 3
  ILS %: 70%

## O=NN(CCCl)C(=O)N[C@H]1C(O)O[C@H](CO)[C@@H](O)[C@@H]1O (stereo partly drawn) [Chlorosoticin, 2-[3-(2-chloro-ethyl)-3-nitroso-ureido]-2-deoxy-O-glycopyranose]
[1]; dose IP 8 mg/kg
  Average loss of weight on the 5th day: +1.2 g
  MST (average survival period): 9.0 days
  MST efficiency %, T/C: 150%
  Number of live mice on the 5th day: 6/6
[1]; dose IP 16 mg/kg
  Average loss of weight on the 5th day: -0.8 g
  MST (average survival period): 20.5 days
  MST efficiency %, T/C: 342%
  Number of live mice on the 5th day: 6/6
[1]; dose IP 32 mg/kg
  Average loss of weight on the 5th day: -1.2 g
  MST (average survival period): > 47.0 days
  MST efficiency %, T/C: > 783%
  Number of live mice on the 5th day: 5/6
  Number of live mice on the [47th] day: 3
[1]; dose IP 48 mg/kg
  Average loss of weight on the 5th day: -1.3 g
  MST (average survival period): 8.5 days
  MST efficiency %, T/C: 142%
  Number of live mice on the 5th day: 6/6

## CC(C)[C@H](NC(=O)[C@@H]1CCCN1C(=O)[C@H](CCCCN)NC(=O)CNC(=O)N(CCCl)N=O)C(N)=O [XII, α-N-nitroso-N-(β-chloro-ethyl)-carbamoyl-glycyl-lysyl-prolyl-valine-amide-hydrochloride] ({Carbamoyl(2-ClEt,NO)}-GKPV-NH2)
[5]; 15 mg/kg
  ILS %: 20%
[5]; 45 mg/kg
  ILS %: 10%
[5]; 100 mg/kg
  ILS %: 35%
[5]; 150 mg/kg
  ILS %: 230%

## O=P1(N(CCCl)CCCl)NCCCO1 (stereo not drawn) [cyclophosphamide]
[4]; 1 × 50 mg/kg, day 2
  ILS %: 44%

## O[C@H]([C@H](O)[C@@H](O)CBr)[C@H](O)CBr [dibromodulcitol]
[4]; 1 × 50 mg/kg, day 2
  ILS %: 0%
